In paper PMC9015904 (ChemMedChem, 2022):

What was measured:
male C57BL/6NHsd mice [1] = settings: mouse, in vivo
KOR [2] = settings: cited from earlier work
KOR [3] = experiment: Literature binding affinity at KOR; settings: from literature Ki values
MOR [4] = settings: cited from earlier work
male C57BL/6NHsd mice [5] = settings: mouse, in vivo; remark: listed apart in the source
DOR = settings: cited from earlier work
MOR [6] = experiment: Literature binding affinity at MOR; settings: from literature Ki values
male C57BL/6NHsd mice [7] = settings: mouse, in vivo; remark: listed apart in the source

SMILES: COC(=O)[C@@H]1C[C@H](OC(=O)c2ccccc2)C(=O)[C@H]2[C@@]1(C)CC[C@H]1C(=O)O[C@H](c3ccoc3)C[C@]21C [Herkinorin]
- latency to hind paw lick or flutter compared to vehicle (male C57BL/6NHsd mice [1]): Neither salivinorin A, herkinorin, nor compound 10 were observed to significantly influence the latency to paw response
- Kd (KOR [2]; read-out: KD [nM] (KOR)): 90 ± 2 nM
- Ki (KOR [2]; read-out: Ki (KOR)): 90 nM
- fold lower affinity for KOR compared to salvinorin A (KOR [3]): 47 fold
- Kd (MOR [4]; read-out: KD [nM] (MOR)): 12 ± 1 nM
- Ki (MOR [4]; read-out: Ki (MOR)): 12 nM
- latency to tail withdrawal compared to vehicle (male C57BL/6NHsd mice [5]): Neither salvinorin A, herkinorin, nor compounds 2 or 10 demonstrated significant antinociception
- Kd (DOR; read-out: KD [nM] (DOR), Literature values): 1170 ± 60 nM
- Ki (DOR; read-out: Ki (DOR)): 1170 nM
- fold higher affinity for MOR compared to salvinorin A (MOR [6]): ≥ 83 fold
- time spent in the open arms compared to vehicle (male C57BL/6NHsd mice [7]): notable increase in open arm time, but this was not statistically significant
